Assay results as given in patent US11458144B1, “Methods for using 5-HMF analogs with increased solubility to inhibit or reverse RBC sickling” (King Abdulaziz University, priority 2021, dated 2022).
Where two headings read alike, the source gives them in different places. Values belong to the compound of their own block, whether it stands above or below them.

Columns and labels:
HbA = biological target: T1, HbA (Homo sapiens, UniProt P68871+P69905); test: Time-dependent Hb oxygen equilibrium study in normal whole blood; type: cell-based; conditions: 2 mM, 20% hematocrit, at 3 hours
T1 construct: time-dependent P50-shift of HbA in normal blood (20% hematocrit); endogenous in cells; host or cells: red blood cells in normal whole blood of adult donors (hematocrit 20%)
Method: The time-dependent effect of the MMA compounds and positive control 5-HMF on Hb oxygen affinity was studied using normal blood following previous procedure.^[15] Briefly, normal blood samples (hematocrit 20%) were incubated with the compounds at 37° C. for 24 h. Aliquots were taken at various time points and incubated in IL 237 tonometers (Instrumentation Laboratories, Inc. Lexington, Mass.) for 10 minutes at 37° C., and allowed to equilibrate at oxygen tensions 6, 20, and 40 mmHg. The samples were then aspirated into an ABL 700 Automated Blood Gas Analyzer (Radiometer) to determine the pH, partial pressure of CO2 (pCO2), partial pressure of oxygen (pO2), and Hb oxygen saturation values (SO2). The measured values of pO2 (mmHg) and SO2 at each pO2 value were then subjected to a non-linear regression analysis using the program Scientist (Micromath, Salt Lake City, Utah) to estimate P50 as previously reported.^[28]
5-HMF has a short half-life and poor oral bioavailability due to this metabolic instability, which in part prevented its development for chronic use. Nonetheless, this metabolic instability could be advantageous for parenteral formulation for acute use. […] Briefly, blood samples (hematocrit 20%) were incubated with the compounds at 37° C. for 24 h, and aliquots were taken at the various time points and used to determine the PO2 and SO2 using ABL 800 Automated Blood Gas Analyzer (Radiometer), and to estimate P50 as previously reported.^[10]
The study confirmed the trend in the biological potencies observed with SS blood.

SS RBCs = test: Antisickling study (RBC morphology) in SS blood under hypoxia; type: cell-based, human; conditions: 2 mM
Method: (§1) The effect of the MMA compounds and positive control 5-HMF on RBC sickling, Hb modification, and Hb oxygen equilibrium was studied utilizing SS blood following previous procedure.^[27]
For the antisickling study, SS blood (hematocrit 20%) were incubated under air in the absence or presence of all the MMA compounds (0.5 mM, 1 mM and 2 mM) at 37° C. for 1 h, followed by incubating the mixture under hypoxic conditions (2.5% O2) at 37° C. for 2 h. Aliquots with fixed 2% glutaraldehyde solution and under anaerobic condition were subjected to microscopic morphological analysis.^[11]
(§2) Using homozygous sickle (SS) blood from patients, the MMA compounds (MMA502, MMA503, MMA504, MMA505, and MMA509 were tested with 5-HMF as control for Hb adduct formation, effect on Hb affinity for oxygen and corresponding antisickling activities (RBC morphology study) using previously published protocols.^14,15

CYP2C8 = biological target: T2, CYP2C8 (Homo sapiens, UniProt P10632); test: In vitro CYP inhibition, pooled human liver microsomes; type: in vitro ADME; conditions: substrate Amodiaquine
T2 construct: using pooled human liver microsomes as previously published; from tissue; host or cells: pooled human liver microsomes
T2 sequence (P10632 1-490): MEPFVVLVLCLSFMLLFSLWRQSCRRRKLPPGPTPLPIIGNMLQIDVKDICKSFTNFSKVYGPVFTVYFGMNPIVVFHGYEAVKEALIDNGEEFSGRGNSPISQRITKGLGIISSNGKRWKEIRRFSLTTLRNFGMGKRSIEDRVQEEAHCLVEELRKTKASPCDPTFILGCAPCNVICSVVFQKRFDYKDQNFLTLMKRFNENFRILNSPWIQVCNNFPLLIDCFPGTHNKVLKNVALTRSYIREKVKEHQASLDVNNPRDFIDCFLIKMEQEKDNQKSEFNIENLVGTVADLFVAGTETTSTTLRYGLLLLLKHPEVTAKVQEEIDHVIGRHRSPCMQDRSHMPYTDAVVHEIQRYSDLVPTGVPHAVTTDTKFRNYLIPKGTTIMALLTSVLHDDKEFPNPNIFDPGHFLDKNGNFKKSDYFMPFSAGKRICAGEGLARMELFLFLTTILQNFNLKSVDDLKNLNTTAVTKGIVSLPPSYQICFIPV
Method: (§3) The probe substrates include tacrine (CYP1A2), amodiaquine (CYP2C8), tolbutamide (CYP2C9), mephenytoin (CYP2C19), dextromethorphan (CYP2D6), midazolam (CYP3A4), testosterone (CYP3A4), and bupropion (CYP2B6). […] The assays were performed in duplicate in 96-well plates at 37° C. for 10-60 minutes. The reaction was terminated with addition of methanol, followed by incubation at 4° C. for 10 min and centrifuged at 4° C. for 10 min.

CYP1A2 = biological target: T3, CYP1A2 (Homo sapiens, UniProt P05177); test: as above; type: in vitro ADME; conditions: substrate Tacrine
T3 construct: using pooled human liver microsomes as previously published; from tissue; host or cells: pooled human liver microsomes
T3 sequence (P05177 1-516): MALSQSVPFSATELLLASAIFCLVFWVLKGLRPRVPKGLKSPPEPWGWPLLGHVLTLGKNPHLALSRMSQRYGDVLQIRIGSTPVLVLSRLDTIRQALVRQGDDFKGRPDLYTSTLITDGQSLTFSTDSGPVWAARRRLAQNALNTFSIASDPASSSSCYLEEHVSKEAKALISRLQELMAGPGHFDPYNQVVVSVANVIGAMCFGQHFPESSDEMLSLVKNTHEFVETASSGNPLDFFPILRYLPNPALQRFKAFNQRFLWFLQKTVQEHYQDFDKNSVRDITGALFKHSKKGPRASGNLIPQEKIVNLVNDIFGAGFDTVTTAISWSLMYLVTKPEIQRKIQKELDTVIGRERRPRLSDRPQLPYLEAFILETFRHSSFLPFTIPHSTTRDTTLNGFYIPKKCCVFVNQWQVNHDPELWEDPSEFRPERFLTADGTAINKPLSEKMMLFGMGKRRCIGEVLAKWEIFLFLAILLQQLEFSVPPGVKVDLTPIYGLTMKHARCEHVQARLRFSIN
Method: as §3

[1] = tested on: human cytochrome P450 (CYP) enzymes; test: In vitro CYP inhibition, panel of seven enzymes (overall statement); type: in vitro ADME; conditions: 0.1 to 100 μM; pooled human liver microsomes
Method: as §3

CYP2C19 = CYP2C19 (Homo sapiens, UniProt P33261); test: In vitro CYP inhibition, pooled human liver microsomes
Method: as §3

CYP2D6 = CYP2D6 (Homo sapiens, UniProt P10635); test: as above
Method: as §3

CYP2C9 = CYP2C9 (Homo sapiens, UniProt P11712); test: as above
Method: as §3

CYP3A4 = CYP3A4 (Homo sapiens, UniProt P08684); test: as above
Method: as §3

CYP2B6 = biological target: T4, CYP2B6 (Homo sapiens, UniProt P20813); test: as above
T4 sequence (P20813 1-491): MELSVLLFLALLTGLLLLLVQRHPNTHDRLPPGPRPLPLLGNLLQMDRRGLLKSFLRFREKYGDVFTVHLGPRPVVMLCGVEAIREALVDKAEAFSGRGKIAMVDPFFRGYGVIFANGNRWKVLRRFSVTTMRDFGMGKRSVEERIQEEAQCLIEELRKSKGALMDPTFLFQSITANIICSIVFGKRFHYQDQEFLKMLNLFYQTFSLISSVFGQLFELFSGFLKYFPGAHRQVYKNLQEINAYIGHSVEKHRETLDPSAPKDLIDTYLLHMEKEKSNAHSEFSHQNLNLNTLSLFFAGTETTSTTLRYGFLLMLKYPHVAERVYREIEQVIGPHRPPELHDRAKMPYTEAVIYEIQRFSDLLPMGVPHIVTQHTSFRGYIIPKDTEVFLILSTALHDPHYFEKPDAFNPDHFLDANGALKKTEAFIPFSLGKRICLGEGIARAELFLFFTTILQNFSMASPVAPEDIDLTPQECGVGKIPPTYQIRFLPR
Method: as §3

Hb [2] = biological target: T5, Hb (Homo sapiens, UniProt P68871+P69905, E7V); test: Oxygen equilibrium study (P50 shift) of lysates from SS blood, Hemox Analyzer; type: cell-based; conditions: SS RBCs
T5 construct: Using homozygous sickle (SS) blood from patients; endogenous in cells; host or cells: red blood cells of homozygous SS patient blood (hematocrit 20%); clarified lysates measured after incubation
Method: as §1
For the oxygen equilibrium study, about 100 μL aliquot of clarified lysate of residual samples from the above antisickling study was added to 4 mL of 0.1 M potassium phosphate buffer, pH 7.0, in cuvettes and subjected to hemoximetry analysis using Hemox™ Analyzer (TCS Scientific Corp., New Hope, Pa.) to assess P50 shift, which is the partial pressure of oxygen (PO2) at which 50% of Hb is saturated with oxygen (SO2). Degree of Hb O2 affinity shift (ΔP50) was expressed as percentage fractions of control DMSO-treated samples.
as §2

Hb [3] = biological target: T5, Hb; test: Hb adduct formation (Hb modification) by cation-exchange HPLC, SS blood lysates; type: binding; conditions: SS RBCs
Excerpt: as §1
The Hb adduct formation study also used clarified lysates that were subjected to a cation-exchange HPLC (Hitachi D-7000 Series, Hitachi Instruments, Inc., San Jose, Calif.), and a weak cation-exchange column (Poly CAT A: 30 mm×4.6 mm, Poly LC, Inc., Columbia, Md.).
as §2

Compound: O=Cc1ccc(CO)o1 [Compound 5-HMF, 5-hydroxymethylfurfural, reference compound]
- %P50 shift (HbA): 35%
- % Sickling inhibition (SS RBCs; SS blood hematocrit 20%, 2.5% O2, 37° C.): 21.4 ± 0.0%
- inhibition at 2000 µM (SS RBCs; Homo sapiens, SS blood hematocrit 20%, 2.5% O2, 37° C., read-out: % Sickling inhibition): 21%
- IC50 (CYP2C8): > 100 µM
- IC50 (CYP1A2): > 100 µM
- inhibition of liver CYP isozymes [1]: no inhibition
- IC50 (CYP2C19): > 100 µM
- IC50 (CYP2D6): > 100 µM
- IC50 (CYP2C9): > 100 µM
- IC50 (CYP3A4): > 100 µM
- IC50 (CYP3A4; human, microsomes, pH 7.4): > 100 µM
- IC50 (CYP2B6): > 100 µM
- % Hb-O2 affinity (P50 shift vs DMSO control) (Hb [2]; 2 mM): 27%
- % Hb-O2 affinity (P50 shift vs DMSO control) (Hb [2]; 2 mM, listed as 5HMF): 27.2 ± 4.9%
- % Hb-modification (adduct formation) (Hb [3]; 2 mM): 33%
- % Hb-modification (adduct formation) (Hb [3]; 2 mM, listed as 5HMF): 33.8 ± 11.7%

- % Hb-O2 affinity (P50 shift vs DMSO control) (Hb [2]; 0.5 mM): 14.2 ± 3.4%
- % Hb-O2 affinity (P50 shift vs DMSO control) (Hb [2]; 1 mM): 8.8 ± 0.5%
- % Hb-O2 affinity (P50 shift vs DMSO control) (Hb [2]; 2 mM, listed as 502): 31.5 ± 12.7%
- % Hb-O2 affinity (P50 shift vs DMSO control) (Hb [2]; 2 mM, listed as MMA502): 32%
- % Hb-modification (adduct formation) (Hb [3]; 0.5 mM): 9.6 ± 0.0%
- % Hb-modification (adduct formation) (Hb [3]; 1 mM): 20.4 ± 6.6%
- % Hb-modification (adduct formation) (Hb [3]; 2 mM, listed as 502): 42.4 ± 10.9%
- % Hb-modification (adduct formation) (Hb [3]; 2 mM, listed as MMA502): 42%
Compound: O=Cc1ccc(C(F)F)o1 [MMA-502, 5-(difluoromethyl)furan-2-carbaldehyde]
- antisickling activity relative to 5-HMF (SS RBCs; over 5-HMF): ~2.5 fold

- % Hb-O2 affinity (P50 shift vs DMSO control) (Hb [2]; 0.5 mM): 8.0 ± 1.1%
- % Hb-O2 affinity (P50 shift vs DMSO control) (Hb [2]; 1 mM): 20.0 ± 2.5%
- % Hb-O2 affinity (P50 shift vs DMSO control) (Hb [2]; 2 mM, listed as 503): 37.1 ± 2.5%
- % Hb-O2 affinity (P50 shift vs DMSO control) (Hb [2]; 2 mM, listed as MMA503): 37%
- % Hb-modification (adduct formation) (Hb [3]; 0.5 mM): 4.8 ± 2.1%
- % Hb-modification (adduct formation) (Hb [3]; 1 mM): 18.0 ± 7.9%
- % Hb-modification (adduct formation) (Hb [3]; 2 mM, listed as 503): 34.6 ± 7.1%
- % Hb-modification (adduct formation) (Hb [3]; 2 mM, listed as MMA503): 35%
Compound: O=Cc1ccc(-c2ccn[nH]2)o1 [MMA-503, 5-(1H-pyrazol-5-yl)furan-2-carbaldehyde]
